Read-outs that look alike come from different tables or passages of the source.
How the values were obtained:
[1] = system: MYXV; test: MYXV-GFP infection rate in RK13 cells (high content microscopy); conditions: for IC50: MYXV in RK13 cells; for Inhibition of MYXV infection rate (in words): RK13 cells
Method: RK13 (rabbit epitelial kidney) cells were used for MYXV infection assay.
Cells were grown in 200 μL Dulbecco's Modified Eagle's medium (DMEM) without phenol red (Sigma-Aldrich), 10% SVF, Pen-strep, 1× sodium pyruvate, 1× Glutamax.
RK13 cells at MOI 0.5 48 h post-infection (PI) are fixed with Formalin 10 min at room temperature. Wash with 200 μL PBS and 100 μL PBS/Hoechst 33342 (1/1000) per well. 96 well plates are kept at 4° C. in the dark until data acquisition. Image acquisition and analysis for high content quantification is performed on a Thermo Cellomics Arrayscan VTI microscope using a modified compartmental analysis algorithm.
(§1) RK13 cells for the toxicity study and RK13 cells at MOI 0.01 6 days PI are fixed and image acquisition and analysis are performed as previously described.
On 48 h and 6d post-infection, data acquisition was done by high content microscopy to calculate infection level according to compound concentration.

[2] = system: RK13 cells
Method: as §1

[3] = system: MYXV; test: Lysis plaque analysis in RK13 infected with MYXV; assay type: cell-based, Myxoma virus; conditions: 6d PI
Method: Lysis plaque analysis was carried out in RK13 infected with MYXV 6d PI. Lysis plaques area and number of lysis plaques were assessed directly on microscope pictures (FIG. 4).

[4] = read-out: IC50 (48 h PI), MOI 0.5, 48 h post-infection
[5] = read-out: IC50 (6 d PI), MOI 0.01, 6 days post-infection

`O=[N+]([O-])c1ccc(F)c(-c2c3nc(c4ccc([nH]4)c(-c4cc([N+](=O)[O-])ccc4F)c4ccc([nH]4)c(-c4cc([N+](=O)[O-])ccc4F)c4ccc2[nH]4)C=C3)c1` [FNO2Cor, 5,10,15-Tris(2-fluoro-5-nitrophenyl)corrole] was tested. Which IC50 [1, 4] did it give?
Its IC50 is 1330 nM.

And the IC50 [1, 5]?
The IC50 was 500 nM.

And the CC50 [2]?
Its CC50 is 3740 nM.

And the “Area in cm^2 of lysis plaques” value ([3]; concentration 0.37 μM)?
The value was 8 cm^2.

What about the “Number of lysis plaques” value ([3]; concentration 0.37 μM) of the same molecule?
Its value is 5.

And the “Area in cm^2 of lysis plaques” value ([3]; concentration 0.75 μM)?
The value was 3.4 cm^2.

What about the “Number of lysis plaques” value ([3]; concentration 0.75 μM) of the same molecule?
Its value is 6.

And the “Number of lysis plaques” value ([3]; concentration 1.5 μM)?
The value was 1.3.

And the “Number of lysis plaques” value ([3]; concentration 3.1 μM)?
The value was 0.

How did the “Inhibition of MYXV infection rate (in words)” value [1] turn out when `Fc1c(F)c(F)c(-c2c3nc(c4ccc([nH]4)c(-c4c(F)c(F)c(F)c(F)c4F)c4ccc([nH]4)c(-c4c(F)c(F)c(F)c(F)c4F)c4ccc2[nH]4)C=C3)c(F)c1F` [TPFCor, 5,10,15-Tris(pentafluorophenyl)corrole] was run?
The value was “better in vitro anti-MYXV effect than FNO2Cor”.

And the IC50 [1, 4]?
The IC50 was 270 nM.

And the IC50 [1, 5]?
The IC50 was 120 nM.

And the CC50 [2]?
The CC50 was 6680 nM.

And the “Area in cm^2 of lysis plaques” value ([3]; concentration 0.37 μM)?
Its value is 6 cm^2.

And the “Number of lysis plaques” value ([3]; concentration 0.37 μM)?
Its value is 6.7.

What about the “Number of lysis plaques” value ([3]; concentration 0.75 μM) of the same molecule?
The value was 6.

What about the “Number of lysis plaques” value ([3]; concentration 1.5 μM) of the same molecule?
Its value is 3.3.

What about the “Number of lysis plaques” value ([3]; concentration 3.1 μM) of the same molecule?
Its value is 4.

Which results are given for `O=[N+]([O-])c1ccc(-c2c3nc(c4ccc([nH]4)c(-c4ccc([N+](=O)[O-])cc4)c4ccc([nH]4)c(-c4ccc([N+](=O)[O-])cc4)c4ccc2[nH]4)C=C3)cc1` [TpNO2Cor, 5,10,15-Tris(4-nitrophenyl)corrole]?
Inhibition of MYXV infection rate (in words) [1]: better in vitro anti-MYXV effect than FNO2Cor; IC50 [1, 4]: 430 nM; IC50 [1, 5]: 200 nM; CC50 [2]: 4360 nM; Area in cm^2 of lysis plaques ([3]; concentration 0.37 μM): 9 cm^2; Number of lysis plaques ([3]; concentration 0.37 μM): 4; Area in cm^2 of lysis plaques ([3]; concentration 0.75 μM): 3.4 cm^2; Number of lysis plaques ([3]; concentration 0.75 μM): 6.7; Number of lysis plaques ([3]; concentration 1.5 μM): 2.7; Number of lysis plaques ([3]; concentration 3.1 μM): 0

From patent US11529332B2 (priority 2017, dated 2022)
